# US20100298141A1, “SUBSTITUTED PYRIDINE N-OXIDE HERBICIDES” (E. I. DU PONT DE NEMOURS AND COMPANY, priority 2007, published 2010)
# Experiments:
# Assay in all cases: Test F preemergence test
# quackgrass = type: in vivo, Elytrigia repens; settings: scale 0 to 100
# Source text: (§1) Seeds of plant species selected from bermudagrass (Cynodon dactylon), Surinam grass (Brachiaria decumbens), large crabgrass (Digitaria sanguinalis), green foxtail (Setaria viridis), goosegrass (Eleusine indica), johnsongrass (Sorghum halepense), kochia (Kochia scoparia), pitted morningglory (Ipomoea lacunosa), purple nutsedge (Cyperus rotundus), common ragweed (Ambrosia elation), mustard (Brassica nigra), guineagrass (Panicum maximum), […] (Paspalum dilatatum), barnyardgrass (Echinochloa crus-galli), southern sandbur (Cenchrus echinatus), common sowthistle (Sonchus oleraceous), prickly […] spinosa), Italian ryegrass (Lolium multiflorum), common purslane (Portulaca oleracea), broadleaf signalgrass (Brachiaria platyphylla), common groundsel (Senecio vulgaris), common chickweed (Stellaria media), Virginia dayflower (Commelina virginica), annual bluegrass (Poa annua), naked crabgrass (Digitaria nuda), […] cochinchinensis), quackgrass (Elytrigia repens), Canada horseweed (Conyza canadensis), field bindweed (Convolvulus arvensis), […] (Bidens bipinnata), common mallow (Malva sylvestris), Russian thistle (Salsola kali), and sugarcane (Saccharum officinarum) were planted and treated preemergence with test chemicals formulated in a non-phytotoxic solvent mixture which included a surfactant. At a different time, sugarcane was treated with postemergence applications of some of the test chemicals formulated in the same manner. Plants were approximately 3- to 4-leaf stage for the postemergence treatments. Treated plants and controls were maintained in a greenhouse for 14 to 21 days, after which time all species were compared to controls and visually evaluated. […] A dash (-) response means no test result.
# common purslane = type: in vivo, Portulaca oleracea; settings: scale 0 to 100
# Source text: as §1
# prickly sida = type: in vivo, Sida spinosa; settings: scale 0 to 100
# Source text: as §1
# large crabgrass = type: in vivo, Digitaria sanguinalis; settings: scale 0 to 100
# Source text: as §1
# Surinam grass = type: in vivo, Brachiaria decumbens; settings: scale 0 to 100; for Surinam Grass plant response rating: 125 g ai/ha
# Source text: as §1
# johnsongrass = type: in vivo, Sorghum halepense; settings: scale 0 to 100
# Source text: as §1
# goosegrass = type: in vivo, Eleusine indica; settings: scale 0 to 100
# Source text: as §1
# guineagrass = type: in vivo, Panicum maximum; settings: scale 0 to 100
# Source text: as §1
# bermudagrass = type: in vivo, Cynodon dactylon; settings: scale 0 to 100
# Source text: as §1
# common groundsel = type: in vivo, Senecio vulgaris; settings: scale 0 to 100
# Source text: as §1
# Italian ryegrass = type: in vivo, Lolium multiflorum; settings: scale 0 to 100; for Ryegrass, Italian plant response rating: 125 g ai/ha
# Source text: as §1
# kochia = type: in vivo, Kochia scoparia; settings: scale 0 to 100
# Source text: as §1
# purple nutsedge = type: in vivo, Cyperus rotundus; settings: scale 0 to 100
# Source text: as §1
# common ragweed = type: in vivo, Ambrosia elation; settings: scale 0 to 100; for Ragweed plant response rating: 125 g ai/ha
# Source text: as §1
# naked crabgrass = type: in vivo, Digitaria nuda; settings: scale 0 to 100
# Source text: as §1
# southern sandbur = type: in vivo, Cenchrus echinatus; settings: scale 0 to 100; for Sandbur plant response rating: 125 g ai/ha, preemergence; for Plant response rating, Sandbur: Preemergence
# Source text: as §1
smiles,measurement,setting,value
CC(Oc1c(CS(=O)(=O)c2cccc[n+]2[O-])c(C(F)(F)F)nn1C)C(F)(F)F (stereo not shown) [Compound 82],"Plant response rating, Quackgrass","quackgrass; 16 g ai/ha, preemergence",70
same,Quackgrass plant response rating,"quackgrass; 125 g ai/ha, preemergence",100
same,"Plant response rating, Quackgrass","quackgrass; Preemergence, 62 g ai/ha",95
same,"Plant response rating, Quackgrass","quackgrass; Preemergence, 31 g ai/ha",70
same,"Plant response rating, Purslane","common purslane; 16 g ai/ha, preemergence",0
same,Purslane plant response rating,"common purslane; 125 g ai/ha, preemergence",35
same,"Plant response rating, Purslane","common purslane; Preemergence, 62 g ai/ha",30
same,"Plant response rating, Prickly Sida","prickly sida; 16 g ai/ha, preemergence",0
same,Prickly Sida plant response rating,"prickly sida; 125 g ai/ha, preemergence",75
same,"Plant response rating, Prickly Sida","prickly sida; Preemergence, 62 g ai/ha",15
same,"Plant response rating, Prickly Sida","prickly sida; Preemergence, 31 g ai/ha",0
same,"Plant response rating, Crabgrass, Large","large crabgrass; 16 g ai/ha, preemergence",0
same,"Crabgrass, Large plant response rating","large crabgrass; 125 g ai/ha, preemergence",100
same,"Plant response rating, Crabgrass, Large","large crabgrass; Preemergence, 62 g ai/ha",90
same,"Plant response rating, Crabgrass, Large","large crabgrass; Preemergence, 31 g ai/ha",50
same,"Plant response rating, Surinam Grass","Surinam grass; 16 g ai/ha, preemergence",0
same,Surinam Grass plant response rating,Surinam grass; preemergence,100
same,"Plant response rating, Surinam Grass","Surinam grass; Preemergence, 62 g ai/ha",90
same,"Plant response rating, Surinam Grass","Surinam grass; Preemergence, 31 g ai/ha",30
same,Johnsongrass plant response rating,"johnsongrass; 125 g ai/ha, preemergence",100
same,"Plant response rating, Johnsongrass","johnsongrass; Preemergence, 62 g ai/ha",100
same,"Plant response rating, Johnsongrass","johnsongrass; Preemergence, 31 g ai/ha",35
same,"Plant response rating, Goosegrass","goosegrass; 16 g ai/ha, preemergence",15
same,Goosegrass plant response rating,"goosegrass; 125 g ai/ha, preemergence",98
same,"Plant response rating, Goosegrass","goosegrass; Preemergence, 62 g ai/ha",98
same,"Plant response rating, Goosegrass","goosegrass; Preemergence, 31 g ai/ha",75
same,"Plant response rating, Guineagrass","guineagrass; 16 g ai/ha, preemergence",70
same,Guineagrass plant response rating,"guineagrass; 125 g ai/ha, preemergence",100
same,"Plant response rating, Guineagrass","guineagrass; Preemergence, 62 g ai/ha",95
same,"Plant response rating, Guineagrass","guineagrass; Preemergence, 31 g ai/ha",70
same,"Plant response rating, Bermudagrass","bermudagrass; 16 g ai/ha, preemergence",0
same,Bermudagrass plant response rating,"bermudagrass; 125 g ai/ha, preemergence",100
same,"Plant response rating, Bermudagrass","bermudagrass; Preemergence, 62 g ai/ha",90
same,"Plant response rating, Bermudagrass","bermudagrass; Preemergence, 31 g ai/ha",80
same,"Plant response rating, Groundsel","common groundsel; 16 g ai/ha, preemergence",0
same,Groundsel plant response rating,"common groundsel; 125 g ai/ha, preemergence",90
same,"Plant response rating, Groundsel","common groundsel; Preemergence, 62 g ai/ha",30
same,"Plant response rating, Groundsel","common groundsel; Preemergence, 31 g ai/ha",0
same,"Plant response rating, Ryegrass, Italian","Italian ryegrass; 16 g ai/ha, preemergence",35
same,"Ryegrass, Italian plant response rating",Italian ryegrass; preemergence,100
same,"Plant response rating, Ryegrass, Italian","Italian ryegrass; Preemergence, 62 g ai/ha",75
same,"Plant response rating, Ryegrass, Italian","Italian ryegrass; Preemergence, 31 g ai/ha",75
same,"Plant response rating, Kochia","kochia; 16 g ai/ha, preemergence",100
same,Kochia plant response rating,"kochia; 125 g ai/ha, preemergence",100
same,"Plant response rating, Kochia","kochia; Preemergence, 62 g ai/ha",100
same,"Plant response rating, Kochia","kochia; Preemergence, 31 g ai/ha",100
same,"Plant response rating, Purple Nutsedge","purple nutsedge; 16 g ai/ha, preemergence",0
same,Purple Nutsedge plant response rating,"purple nutsedge; 125 g ai/ha, preemergence",50
same,"Plant response rating, Purple Nutsedge","purple nutsedge; Preemergence, 62 g ai/ha",30
same,"Plant response rating, Ragweed","common ragweed; 16 g ai/ha, preemergence",0
same,Ragweed plant response rating,common ragweed; preemergence,0
same,"Plant response rating, Ragweed","common ragweed; Preemergence, 31 g ai/ha",0
same,"Plant response rating, Crabgrass, Naked","naked crabgrass; 16 g ai/ha, preemergence",35
same,"Crabgrass, Naked plant response rating","naked crabgrass; 125 g ai/ha, preemergence",100
same,"Plant response rating, Crabgrass, Naked","naked crabgrass; Preemergence, 62 g ai/ha",100
same,"Plant response rating, Crabgrass, Naked","naked crabgrass; Preemergence, 31 g ai/ha",98
same,Sandbur plant response rating,southern sandbur,95
same,"Plant response rating, Sandbur",southern sandbur; 62 g ai/ha,60
same,"Plant response rating, Sandbur",southern sandbur; 31 g ai/ha,60
Cn1nc(C(F)(F)C(F)(F)F)c(C[S+]([O-])c2cccc[n+]2[O-])c1OCC(F)(F)F (stereo not shown) [Compound 79],"Plant response rating, Quackgrass","quackgrass; 16 g ai/ha, preemergence",0
same,Quackgrass plant response rating,"quackgrass; 62 g ai/ha, Preemergence",80
same,Quackgrass plant response rating,"quackgrass; 125 g ai/ha, preemergence",95
same,"Plant response rating, Quackgrass","quackgrass; Preemergence, 31 g ai/ha",35
same,"Plant response rating, Purslane","common purslane; 16 g ai/ha, preemergence",30
same,Purslane plant response rating,"common purslane; 62 g ai/ha, Preemergence",60
same,Purslane plant response rating,"common purslane; 125 g ai/ha, preemergence",100
same,"Plant response rating, Purslane","common purslane; Preemergence, 31 g ai/ha",40
same,"Plant response rating, Prickly Sida","prickly sida; 16 g ai/ha, preemergence",0
same,Prickly Sida plant response rating,"prickly sida; 62 g ai/ha, Preemergence",100
same,Prickly Sida plant response rating,"prickly sida; 125 g ai/ha, preemergence",100
same,"Plant response rating, Prickly Sida","prickly sida; Preemergence, 31 g ai/ha",20
same,"Plant response rating, Crabgrass, Large","large crabgrass; 16 g ai/ha, preemergence",0
same,"Crabgrass, Large plant response rating","large crabgrass; 62 g ai/ha, Preemergence",80
same,"Crabgrass, Large plant response rating","large crabgrass; 125 g ai/ha, preemergence",100
same,"Plant response rating, Crabgrass, Large","large crabgrass; Preemergence, 31 g ai/ha",20
same,Surinam Grass plant response rating,Surinam grass; preemergence,100
same,"Plant response rating, Surinam Grass","Surinam grass; Preemergence, 62 g ai/ha",100
same,"Plant response rating, Surinam Grass","Surinam grass; Preemergence, 31 g ai/ha",30
same,"Plant response rating, Johnsongrass","johnsongrass; 16 g ai/ha, preemergence",0
same,Johnsongrass plant response rating,"johnsongrass; 62 g ai/ha, Preemergence",90
same,Johnsongrass plant response rating,"johnsongrass; 125 g ai/ha, preemergence",100
same,"Plant response rating, Johnsongrass","johnsongrass; Preemergence, 31 g ai/ha",50
same,"Plant response rating, Goosegrass","goosegrass; 16 g ai/ha, preemergence",20
same,Goosegrass plant response rating,"goosegrass; 62 g ai/ha, Preemergence",98
same,Goosegrass plant response rating,"goosegrass; 125 g ai/ha, preemergence",100
same,"Plant response rating, Goosegrass","goosegrass; Preemergence, 31 g ai/ha",75
same,"Plant response rating, Guineagrass","guineagrass; 16 g ai/ha, preemergence",0
same,Guineagrass plant response rating,"guineagrass; 62 g ai/ha, Preemergence",100
same,Guineagrass plant response rating,"guineagrass; 125 g ai/ha, preemergence",100
same,"Plant response rating, Guineagrass","guineagrass; Preemergence, 31 g ai/ha",95
same,"Plant response rating, Bermudagrass","bermudagrass; 16 g ai/ha, preemergence",10
same,Bermudagrass plant response rating,"bermudagrass; 62 g ai/ha, Preemergence",100
same,Bermudagrass plant response rating,"bermudagrass; 125 g ai/ha, preemergence",100
same,"Plant response rating, Bermudagrass","bermudagrass; Preemergence, 31 g ai/ha",65
same,"Plant response rating, Groundsel","common groundsel; 16 g ai/ha, preemergence",95
same,Groundsel plant response rating,"common groundsel; 62 g ai/ha, Preemergence",95
same,Groundsel plant response rating,"common groundsel; 125 g ai/ha, preemergence",100
same,"Plant response rating, Groundsel","common groundsel; Preemergence, 31 g ai/ha",95
same,"Plant response rating, Ryegrass, Italian","Italian ryegrass; 16 g ai/ha, preemergence",0
same,"Ryegrass, Italian plant response rating",Italian ryegrass; preemergence,100
same,"Plant response rating, Ryegrass, Italian","Italian ryegrass; Preemergence, 62 g ai/ha",100
same,"Plant response rating, Ryegrass, Italian","Italian ryegrass; Preemergence, 31 g ai/ha",65
same,"Plant response rating, Kochia","kochia; 16 g ai/ha, preemergence",50
same,Kochia plant response rating,"kochia; 62 g ai/ha, Preemergence",100
same,Kochia plant response rating,"kochia; 125 g ai/ha, preemergence",100
same,"Plant response rating, Kochia","kochia; Preemergence, 31 g ai/ha",100
same,"Plant response rating, Purple Nutsedge","purple nutsedge; 16 g ai/ha, preemergence",0
same,Purple Nutsedge plant response rating,"purple nutsedge; 62 g ai/ha, Preemergence",0
same,Purple Nutsedge plant response rating,"purple nutsedge; 125 g ai/ha, preemergence",60
same,"Plant response rating, Purple Nutsedge","purple nutsedge; Preemergence, 31 g ai/ha",0
same,"Plant response rating, Ragweed","common ragweed; 16 g ai/ha, preemergence",95
same,Ragweed plant response rating,common ragweed; preemergence,100
same,"Plant response rating, Ragweed","common ragweed; Preemergence, 62 g ai/ha",100
same,"Plant response rating, Ragweed","common ragweed; Preemergence, 31 g ai/ha",100
same,"Plant response rating, Crabgrass, Naked","naked crabgrass; 16 g ai/ha, preemergence",0
same,"Crabgrass, Naked plant response rating","naked crabgrass; 62 g ai/ha, Preemergence",100
same,"Crabgrass, Naked plant response rating","naked crabgrass; 125 g ai/ha, preemergence",100
same,"Plant response rating, Crabgrass, Naked","naked crabgrass; Preemergence, 31 g ai/ha",40
same,Sandbur plant response rating,southern sandbur,95
same,"Plant response rating, Sandbur",southern sandbur; 62 g ai/ha,95
same,"Plant response rating, Sandbur",southern sandbur; 31 g ai/ha,35
